This note sets out measurements from ChEMBL document CHEMBL5120976, “Application of Deuterated N,N-Dimethyltryptamine in the Potential Treatment of Psychiatric and Neurological Disorders” (ACS Med Chem Lett, 2022).

Common to all, as to format: ADME, cell-based, Hepatocyte
Data set [1] is described as follows: Half life in human hepatocytes.
The nature of data set [2]: Intrinsic clearance in human hepatocytes assessed per 10^6 cells relative to SPL026.
Data set [3] is described as follows: Intrinsic clearance in human hepatocytes assessed per 10^6 cells. The following applies: read-out: CLH.

What is called half-life is the time needed for the level to fall by half in the phase considered. A lower half-life goes with rapid decline. `O=C(O)/C=C/C(=O)O.[2H]C([2H])([2H])N(C([2H])([2H])[2H])C([2H])([2H])Cc1c[nH]c2ccccc12` yielded a half-life in data set [1] of 3.45 h. The “fold change (FC)” value in data set [2] was found to be 2.1. In data set [3], the hepatocyte CLint is 9.3 µL/min/1e6 cells.

With `O=C(O)/C=C/C(=O)O.[2H]C([2H])([2H])N(CCc1c[nH]c2ccccc12)C([2H])([2H])[2H]`, in data set [2], the “fold change (FC)” value worked out at 1.1.
